Results as given in patent US20070037219A1, “Rhesus monkey bombesin receptor subtype-3 (brs-3), nucleotides encoding same, and uses thereof” (priority 2003, published 2007).

Columns and labels:
[1] = biological target: rhesus monkey bombesin receptor subtype-3 (rhesus monkey) (UniProt Q6H2Y3); assay: cell-based or functional assay
[2] = system: rhesus monkey BRS3 receptor; assay: Functional expression of rhesus monkey BRS3 in aequorin-expressing reporter cell line 293-AEQ17 (luminescence, fractional response); type: cell-based; details: 293-AEQ17 cells transfected with rhesus monkey BRS3 plasmid, aequorin light emission, read-out: EC50 value for activation of the rhesus monkey BRS3 receptor
Chain of rhesus monkey BRS3 receptor (as listed by the source): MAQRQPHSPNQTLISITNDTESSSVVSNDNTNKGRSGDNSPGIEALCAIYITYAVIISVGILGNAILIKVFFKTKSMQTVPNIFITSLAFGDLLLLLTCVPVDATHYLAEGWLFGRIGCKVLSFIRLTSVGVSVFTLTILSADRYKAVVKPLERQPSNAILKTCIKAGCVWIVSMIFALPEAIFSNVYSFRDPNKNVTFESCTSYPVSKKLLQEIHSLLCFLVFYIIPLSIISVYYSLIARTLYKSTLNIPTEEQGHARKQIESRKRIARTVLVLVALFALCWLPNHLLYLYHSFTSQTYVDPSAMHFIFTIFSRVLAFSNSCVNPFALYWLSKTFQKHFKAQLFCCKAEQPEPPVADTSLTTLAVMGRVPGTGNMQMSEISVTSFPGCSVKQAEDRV
Procedure: Measurement of rhesus monkey BRS3 receptor expression in the aequorin-expressing stable reporter cell line 293-AEQ17 (Button et al., 1993. Cell Calcium 14: 663-671) was performed using a Luminoskan RT luminometer (Labsystems Inc., Gaithersburg, Md.) controlled by custom software written for a Macintosh PowerPC 6100. 293-AEQ17 cells (8×10^5 cells plated 18 hours before transfection in a T75 flask) were transfected with 22 μg of rhesus monkey BRS3 receptor plasmid DNA: 264 μg lipofectamine.
Following approximately 40 hours of expression, the apo-aequorin in the cells was charged for 4 hours with coelenterazine (10 μM) under reducing conditions (300 μM reduced glutathione) in ECB buffer (140 mM NaCl, 20 mM KCl, 20 mM HEPES-NaOH [pH=7.4], 5 MM glucose, 1 mM MgCl2, 1 mM CaCl2, 0.1 mg/ml bovine serum albumin). The cells were harvested, washed once in ECB medium and resuspended to 500,000 cells/ml. 100 μl of cell suspension (corresponding to 5×10^4 cells) was then injected into the test plate containing the BRS3 agonist peptide D-Tyr6-betaAla11-Phe13-Nle14]bombesin6-14, and the integrated light emission was recorded over 30 seconds, in 0.5-second units. 20 μL of lysis buffer (0.1% final Triton X-100 concentration) was then injected and the integrated light emission recorded over 10 seconds, in 0.5-second units. […]

[3] = system: all three human bombesin receptor subtypes; details: literature statement, Pradhan et al., Eur. J. Pharmacol. 343: 275-87 (1998); cited from earlier work

Chain of rhesus monkey bombesin receptor subtype-3 (rhesus monkey) (Q6H2Y3 whole entry): as the sequence (as listed by the source) above

Substance | EC50 value for activation (aequorin luminescence, fractional response, in transfected 293-AEQ17 cells) [1] [nM] | EC50 [2] [nM] | affinity for all three human bombesin receptor subtypes [3]
[D-Tyr6-betaAla11-Phe13-Nle14]bombesin(6-14) (peptide) | 10 |  | 
[D-Tyr6-betaAlal 11-Phe13-Nle14] bombesin(6-14) [dYB] |  | 10 | high affinity
